Assays:
cholesterol absorption = test: in vivo cholesterol absorption study, serum radioactivity after oral [4-^14C] cholesterol; conditions: Rattus norvegicus, 6 h, normal rats, serum radioactivity at six hours; for inhibition in vivo at 100 mg/kg / inhibition in vivo at 50 mg/kg / inhibition in vivo at 65 mg/kg: vs control, read-out: Decrease in [^14C] Cholesterol Absorption; for ED50: read-out: ED50 (effective dose inhibiting fifty percent of the cholesterol absorption of the control animals)
Protocol: The in vivo cholesterol absorption studies were conducted in normal rats by oral administration of the compound being tested in propylene glycol and olive oil followed by oral administration of [4-^14 C] cholesterol in propylene glycol and olive oil, otherwise following the procedure of Cayen et al., J. Lipid Res. 20 162 (1979). The serum radioactivity was measured at six hours after dosing. The results of this study are reported in the following Table, where available, as percent decrease compared to control and in terms of the effective dose (ED50) inhibiting fifty-percent of the absorption of the control animals.

[1] = target: T1, cholesterol esterase (EC 3.1.1.13) (Bos taurus, UniProt P30122); test: in vitro inhibition of cholesteryl ester formation by cholesterol esterase; type: biochemical, bovine; conditions: for IC50: 37° C., cholesterol and oleic acid, cholesterol esterase from bovine pancreas, read-out: IC50 (concentration that inhibits one-half of the ester formation)
T1 construct: purchased Sigma Chemical Company, St. Louis, Mo., USA C-1892; host or cells: bovine pancreas
T1 sequence (P30122 19-597): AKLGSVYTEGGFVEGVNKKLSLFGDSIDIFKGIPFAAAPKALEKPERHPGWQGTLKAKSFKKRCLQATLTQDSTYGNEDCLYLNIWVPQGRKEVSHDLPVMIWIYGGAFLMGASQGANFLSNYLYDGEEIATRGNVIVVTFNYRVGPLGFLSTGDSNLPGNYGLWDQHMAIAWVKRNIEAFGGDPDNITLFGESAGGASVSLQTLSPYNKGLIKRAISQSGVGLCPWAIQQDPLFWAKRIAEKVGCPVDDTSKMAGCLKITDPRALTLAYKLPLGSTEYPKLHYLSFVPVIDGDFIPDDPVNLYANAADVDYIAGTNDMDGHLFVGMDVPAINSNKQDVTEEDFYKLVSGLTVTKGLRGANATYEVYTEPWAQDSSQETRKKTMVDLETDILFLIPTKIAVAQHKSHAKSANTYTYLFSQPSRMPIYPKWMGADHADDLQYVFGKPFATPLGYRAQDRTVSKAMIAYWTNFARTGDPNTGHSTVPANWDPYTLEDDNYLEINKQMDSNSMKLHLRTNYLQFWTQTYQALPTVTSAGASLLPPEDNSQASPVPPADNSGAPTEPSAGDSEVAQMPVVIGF
Protocol: The ability of the compounds of this invention to inhibit the formation of cholesteryl esters and thereby interfere with and prevent assimilation of cholesterol into the lymphatic system and ultimately the blood stream was established by incubating the compounds at 37° C. with a mixture of cholesterol and oleic acid in the presence of buffered cholesterol esterase [(EC 3.1.1.13) Sigma Chemical Company, St. Louis, Mo., USA, No. C-1892, from bovine pancreas] and measuring the amount of ester formed, according to the procedure of Field, J. of Lipid Research, 25 389 (1984).

| SMILES | IC50 [1] [µM] | further results |
| --- | --- | --- |
| CC(C)CCCC(C)NC(=O)Oc1ccc(Oc2ccccc2)cc1 (centres unmarked) [Example 4, (1,5-Dimethylhexyl)carbamic acid 4-phenoxyphenyl ester] | 5 | inhibition in vivo at 100 mg/kg (cholesterol absorption): 89%; ED50 (cholesterol absorption): 13 mg/kg |
| CCCCCCCCCCCCOC(=O)c1cc(Oc2ccccc2)ccc1OC(=O)N1CCC(C)CC1 [Example 58, 4-Methyl-1-piperidinecarboxylic acid 2-(dodecycloxycarbonyl)-4-phenoxyphenyl ester] | 0.34 | inhibition in vivo at 50 mg/kg (cholesterol absorption): 37% |
| COC(=O)c1cc(Oc2ccccc2)ccc1OC(=O)N1CCC(C)CC1 [Example 49, 4-Methyl-1-piperidinecarboxylic acid 2-(methoxycarbonyl)-4-phenoxyphenyl ester] | 0.34 | inhibition in vivo at 50 mg/kg (cholesterol absorption): 28% |
| O=C(Oc1ccc(Oc2ccccc2)cc1)N1CCC(O)CC1 [Example 44, 4-Hydroxy1-piperidinecarboxylic acid 4-phenoxyphenyl ester] | 1.9 | inhibition in vivo at 50 mg/kg (cholesterol absorption): 49% |
| CCCCCCN(CCCCCC)CC1CCN(C(=O)Oc2ccc(Oc3ccccc3)cc2)CC1 [Example 62, 4-(Dihexylaminomethyl)-1-piperidinecarboxylic acid 4-phenoxyphenyl ester] | 15 | – |
| O=C(Oc1ccc(Oc2ccccc2)cc1)N1CCCCC1 [Example 2, 1-Piperidinecarboxylic acid 4-phenoxyphenyl ester] | 0.13 | inhibition in vivo at 100 mg/kg (cholesterol absorption): 82%; ED50 (cholesterol absorption): 24 mg/kg |
| O=C(NCC1CCCCC1)Oc1ccc(Oc2ccccc2)cc1 [Example 14, Cyclohexylmethylcarbamic acid 4phenoxyphenyl ester] | 9.3 | – |
| CCCCCCCCNC(=O)Oc1ccc(Oc2ccccc2)cc1 [Example 11, Octylcarbamic acid 4phenoxyphenyl ester] | 20 | – |
| O=C(O)C1CCN(C(=O)Oc2ccc(Oc3ccccc3)cc2)CC1 [Example 46, 1.4-Piperidinedicarboxylic acid 1-(1-phenoxyphenyl ester)] | 44 | inhibition in vivo at 100 mg/kg (cholesterol absorption): 55% |
| CCCCNC(=O)Oc1ccc(Oc2ccc(C)cc2)cc1 [Example 19, Butylcarbamic acid 4-(4-methylphenoxy)phenyl ester] | 5.4 | – |
| CCN(CC)CC1CCN(C(=O)Oc2ccc(Oc3ccccc3)cc2)CC1 [Example 60] | > 100 | inhibition in vivo at 50 mg/kg (cholesterol absorption): 49% |
| CC[N+](CC)(CC)CC1CCN(C(=O)Oc2ccc(Oc3ccccc3)cc2)CC1 [Example 61, Triethyl 1-[(4-phenoxyphenoxy)carbonyl]-4-piperidinemethanaminium iodide] | > 100 | inhibition in vivo at 50 mg/kg (cholesterol absorption): 33% |
| O=C(Oc1ccc(Oc2ccccc2)cc1)N1CCOCC1 [Example 7, 4-Morpholinecarboxylic acid 4-phenoxyphenol ester] | 85 | – |
| CCCCNC(=O)Oc1ccc(Oc2ccc(Cl)cc2)cc1 [Example 21, Butylcarbamic acid 4-(4-chlorophenoxy)phenyl ester] | 6.1 | – |
| CCCCNC(=O)Oc1c(C)cc(Oc2ccc(C)cc2)cc1C [Example 22, Butylcarbamic acid 2,6-dimethyl-4-(4-methylphenoxy)phenyl ester] | – | inhibition at 30 µM ([1]; at 30 μM): 20% |
| O=C(Oc1ccc(Oc2ccccc2)cc1)N1CCCCCC1 [Example 40, Hexahydro-1H-azepine-1-carboxylic acid 4-phenoxyphenyl ester] | 19 | – |
| CCCCCC(C)NC(=O)Oc1ccc(Oc2ccccc2)cc1 (centres unmarked) [Example 26] | 2.9 | – |
| CC(C)(C)CC(C)(C)NC(=O)Oc1ccc(Oc2ccccc2)cc1 [Example 16, (1,1,3,3-Tetramethylbutyl)carbamic acid 4-phenoxyphenyl ester] | > 100 | – |
| CCOC(=O)C1CCN(C(=O)Oc2ccc(Oc3ccccc3)cc2)CC1 [Example 43, 1,4-Piperidinedicarboxylic acid 4-ethyl-1-(4phenoxyphenyl) diester] | 4.5 | inhibition in vivo at 50 mg/kg (cholesterol absorption): 60% |
| CC1CCN(C(=O)Oc2ccc(Oc3ccccc3)cc2F)CC1 [Example 41, 4-Methyl-1-piperidinecarboxylic acid 2-fluoro-4-phenoxyphenyl ester] | 0.03 | inhibition in vivo at 50 mg/kg (cholesterol absorption): 73% |
| CC(C)CCCC(C)NC(=O)Oc1ccc(Oc2ccccc2)cc1F (centres unmarked) [Example 37, (1,5-Dimethylhexyl)carbamic acid 2-fluoro-4-phenoxyphenyl ester] | 1.4 | – |
| CCCCNC(=O)Oc1ccc(Oc2ccc(OC)cc2)cc1 [Example 29, Butylcarbamic acid 4-(4-methoxyphenoxy)phenyl ester] | 13 | – |

| SMILES | IC50 [1] [µM] | further results |
| --- | --- | --- |
| O=C(Oc1ccc(Oc2ccccc2)cc1)N1CCSCC1 [Example 10, 4-Thiomorpholinecarboxylic acid 4-phenoxyphenyl ester] | 1.1 | inhibition in vivo at 65 mg/kg (cholesterol absorption): 74%; ED50 (cholesterol absorption): 14 mg/kg |
| Cc1ccc(Oc2ccc(OC(=O)NC(C)CCCC(C)C)cc2)cc1 (centres unmarked) [Example 24, (1,5-Dimethylhexyl)carbamic acid 4-(4-methylphenoxy)phenyl ester] | 5.6 | – |
| CCCCCCCCCCCCOC(=O)C1CCN(C(=O)Oc2ccc(Oc3ccccc3)cc2)CC1 [Example 53, 1,4-Piperidinedicarboxylic acid 4-dodecyl 1-(4-phenoxyphenyl) diester] | > 100 | inhibition in vivo at 100 mg/kg (cholesterol absorption): 44% |
| CC1CCN(C(=O)Oc2ccc(Oc3ccc(Cl)cc3)cc2)CC1 [Example 25, 4-Methyl-1-piperidinecarboxylic acid 4-(4-chlorophenoxy)phenyl ester] | 0.17 | inhibition in vivo at 65 mg/kg (cholesterol absorption): 61% |
| CCCCNC(=O)Oc1ccc(Oc2ccccc2)cc1C(=O)OC [Example 50] | 5.1 | – |
| CC1(C)CCN(C(=O)Oc2ccc(Oc3ccccc3)cc2)CC1 [Example 38, 4,4-Dimethyl-1piperidinecarboxylic acid 4-phenoxyphenol ester] | 0.23 | inhibition in vivo at 50 mg/kg (cholesterol absorption): 86% |
| CC1CCCCN1C(=O)Oc1ccc(Oc2ccccc2)cc1 (centres unmarked) [Example 63, 2-Methyl-1-piperidinecarboxylic acid 4-phenoxyphenyl ester] | > 100 | inhibition in vivo at 50 mg/kg (cholesterol absorption): 68% |
| O=C(Oc1ccc(Oc2ccccc2)cc1)N1CCCC1 [Example 12, 1-Pyrrolidinecarboxylic acid 4-phenoxyphenyl ester] | 0.3 | inhibition in vivo at 65 mg/kg (cholesterol absorption): 43% |
| CC(C)CCCC(C)NC(=O)Oc1ccc(Oc2ccc(Cl)cc2)cc1 (centres unmarked) [Example 27, (1,5-Dimethylhexyl)carbamic acid 4-(4-chlorophenoxy)phenyl ester] | 7.1 | – |
| O=C(Oc1ccc(Oc2ccccc2)cc1)N1CCC(CO)CC1 [Example 56, 4-(Hydroxymethyl)-1-piperidinecarboxylic acid 4-phenoxyphenyl ester] | 2.1 | – |
| CC1CCN(C(=O)Oc2ccc(Oc3ccccc3)cc2)CC1 [Example 8, 4-Methyl-1-piperidinecarboxylic acid 4-phenoxyphenyl ester] | – | inhibition in vivo at 65 mg/kg (cholesterol absorption): 90%; ED50 (cholesterol absorption): 10 mg/kg |
| CC1CCN(C(=O)Oc2ccc(Oc3ccccc3)cc2C(=O)O)CC1 [Example 55] | 31.3 | inhibition in vivo at 50 mg/kg (cholesterol absorption): 16% |
| O=C(NC1CCCCC1)Oc1ccc(Oc2ccccc2)cc1 [Example 13, Cyclohexylcarbamic acid 4-phenoxyphenyl ester] | 6.7 | – |
| CCCCC(CC)NC(=O)Oc1ccc(Oc2ccccc2)cc1 (centres unmarked) [Example 17, (1-Ethylpentyl)carbamic acid 4-phenoxyphenyl ester] | 13.3 | – |
| O=C(Oc1ccc(Oc2ccccc2)cc1)N1CCC(c2ccccc2)CC1 [Example 5, 4-Phenyl1-piperidinecarboxylic acid 4-phenoxyphenl ester] | 33 | – |
| O=C(Oc1ccc(Oc2ccccc2)cc1)N1CCN(c2ccccc2)CC1 [Example 6, 4-Phenyl-1-piperazinecarboxylic acid 4-phenoxyphenyl ester] | 55 | – |
| O=C(Oc1ccc(Oc2ccccc2)cc1)N1CCC(CI)CC1 [Example 59, 4-(Iodomethyl)-1-piperidinecarboxylic acid 4-phenoxyphenyl ester] | 0.27 | – |
| CCCCCCNC(=O)Oc1ccc(Oc2ccccc2)cc1 [Example 36, Hexylcarbamic acid 4-phenoxyphenyl ester] | 1.7 | – |
| CCCCNC(=O)Oc1ccc(Oc2ccccc2)cc1F [Example 28, Butylcarbamic acid 2-fluoro-4-phenoxyphenyl ester] | 1.9 | – |
| CC(C)CC(C)NC(=O)Oc1ccc(Oc2ccccc2)cc1 (centres unmarked) [Example 18, (1,3-Dimethylbutyl)carbamic acid 4phenoxyphenyl ester] | 16.5 | – |
| COc1ccc(Oc2ccc(OC(=O)NC(C)CCCC(C)C)cc2)cc1 (centres unmarked) [Example 31, (1,5-Dimethylhexyl)carbamic acid 4-(4-methoxyphenoxy)phenyl ester] | 26 | – |
| CCCCNC(=O)Oc1ccc(Oc2ccc(C(C)(C)C)cc2)cc1 [Example 32, Butylcarbamic acid 4-[4-(1,1-dimethylethyl)phenoxy]phenyl ester] | > 100 | – |
